In PMC6426286 (2019):

Assays:
[1] = tested on: G. violaceus P1 stem-loop used for crystallization (RNA, riboswitch, 5-bromocytidine at 17) GGUGGGGACGACCCCACC; assay: X-ray crystallography, 1.54 Å; conditions: 100 mM KCl, 2 mM MgCl2 (RNA folding); ligand soaked into ligand-free crystals; 5 mM HEPES pH 7.6 (RNA folding)
[2] = tested on: GVP1 (guanidine-II riboswitch P1 stem-loop) (RNA, riboswitch) GGUGGGGACGACCCCACC; assay: ITC; conditions: 100 mM KCl, 10 mM MgCl2; 40 mM HEPES pH 7.2, 298 K; one-set-of-sites fit
[3] = tested on: GVP2 (guanidine-II riboswitch P2 stem-loop) (RNA, riboswitch) GCGGGGACGACCCCGC; assay: ITC; conditions: 100 mM KCl, 10 mM MgCl2; 40 mM HEPES pH 7.2, 298 K; one-set-of-sites fit
[4] = tested on: GVP1P2 (complete guanidine-II riboswitch) (RNA, riboswitch) GGUGAGGACGACCUCACCCUUCGCAAAGUUUCGCGGGGACGACCCCGC; assay: ITC; conditions: 100 mM KCl, 10 mM MgCl2; 40 mM HEPES pH 7.2, 298 K; one-set-of-sites fit
[5] = tested on: G. violaceus P1 stem-loop used for crystallization (RNA, riboswitch, 5-bromocytidine at 17) GGUGGGGACGACCCCACC; assay: X-ray crystallography, 1.41 Å; conditions: 100 mM KCl, 2 mM MgCl2 (RNA folding); ligand soaked into ligand-free crystals; 5 mM HEPES pH 7.6 (RNA folding)
[6] = tested on: G. violaceus P1 stem-loop used for crystallization (RNA, riboswitch, 5-bromocytidine at 17) GGUGGGGACGACCCCACC; assay: X-ray crystallography, 1.66 Å; conditions: 100 mM KCl, 2 mM MgCl2 (RNA folding); ligand soaked into ligand-free crystals; 5 mM HEPES pH 7.6 (RNA folding)

binding [1]	Kd [2] [µM]	Kd [3] [µM]	Kd [4] [µM]	binding [5]	binding [6]	SMILES
yes						CCNC(=N)N
	68 ± 6	66 ± 8	33 ± 4			N=C(N)N
			5.1 ± 0.8	yes		N=C(N)NCCCCCNC(=N)N
	4.7 ± 0.2	5.9 ± 4	2.2 ± 0.5		yes	N=C(N)NCCCCNC(=N)N
